According to patent US20260014184A1, “ADENOSINE DERIVATIVES FOR USE IN THE TREATMENT OF NEURODEGENERATIVE DISORDERS AND CANCER” (UNIVERSITY COLLEGE CARDIFF CONSULTANTS LIMITED, priority 2022, published 2026):
“Also recorded” adds a separate entry of the source. Like-named read-outs stand apart in the source and are kept apart here.

Columns and labels:
[1] = test system: HeLa cells transfected with YFP-parkin; test: Immunofluorescence for YFP-parkin localisation and TOM20 (mitochondrial fragmentation); format: cell-based
Experimental: (§1) Cells were seeded on PerkinElmer PhenoPlate 96-well plates, followed by treatment with compounds. Cells were fixed in chilled 4% PFA for 10 min followed by washes in PBS. […] Following PBS washes, cells were blocked using blocking buffer (PBS, 5% BSA, 0.1% Tween20) for 1 h at room temperature. Primary antibodies were diluted in blocking buffer and added to cells to be incubated overnight at 4° C. Cells were subsequently washed with PBS-T and the appropriate secondary antibodies (diluted in blocking buffer) were added for 2 h at room temperature in darkness. 10 μg/ml of Hoechst 33258 stain was added with secondary antibodies when required. Cells were again washed with PBS-T followed by addition of PBS with 0.02% sodium azide. Cells were then stored at 4° C. until ready for imaging. Primary antibodies used for immunofluorescence are as follows: Phospho-Ub Ser 65 (Sigma-Aldrich cat #ABS1513-1), TOM20 (Santa-Cruz cat #sc-17764). Secondary antibodies and stains used in immunofluorescence; Anti-IgG2a Alexa Fluor™ 546 (ThermoFisher cat #A21133) Anti-rabbit Alexa Fluor™ 647 (ThermoFisher cat #A21244), Hoechst 33258 stain (Sigma-Aldrich cat #B2883).
(§2) Confocal microscopy was performed using a Zeiss LSM800 w/Airyscan fluorescent microscope equipped with lasers emitting at 405 nm, 488 nm, 561 nm and 640 nm. All images were captured using a 40x oil immersion objective lens and processed using Zeiss ZEN software. Images were analysed and quantified using Columbus (PerkinElmer) and TIBCO Spotfire software.
(§3) First, HeLa cells transfected with YFP-parkin were either left untreated or treated with 50 μM kinetin riboside, nucleosides 9a and 9c for 24 h.

[2] = test system: ubiquitin Ser65 phosphorylation; test: Ubiquitin Ser65 phosphorylation in astrocytes with or without valinomycin; format: cell-based; conditions: for ubiquitin Ser65 phosphorylation after pre-treatment followed by valinomycin, compared to valinomycin alone: 50 μM 24 h, 50 nM valinomycin for 5 h; for ubiquitin Ser65 phosphorylation, compound alone: 50 μM, 24 h
Experimental: Briefly, astrocytes were treated with 50 μM of the nucleobase kinetin, nucleosides 9a and 9c or DMSO for 24 h and 5 h prior to lysis, the samples were treated with 50 nM valinomycin, a mitochondrial uncoupler.

Ub Ser65 phosphorylation [3] = test: Immunofluorescence for Ub Ser65 phosphorylation in YFP-parkin transfected HeLa cells; format: cell-based
Experimental: as §1, §2, §3

PINK1 [4] = biological target: T1, PINK1 (Homo sapiens, UniProt Q9BXM7); test: PINK1 activation in cells judged by parkin Ser65 phosphorylation (parkin-transfected HeLa cells); format: cell-based; conditions: 50 μM, 1 h
T1 construct: HeLa cells, which express PINK1 endogenously; endogenous in cells; host or cells: HeLa cells transiently transfected with parkin
T1 sequence (Q9BXM7 78-581): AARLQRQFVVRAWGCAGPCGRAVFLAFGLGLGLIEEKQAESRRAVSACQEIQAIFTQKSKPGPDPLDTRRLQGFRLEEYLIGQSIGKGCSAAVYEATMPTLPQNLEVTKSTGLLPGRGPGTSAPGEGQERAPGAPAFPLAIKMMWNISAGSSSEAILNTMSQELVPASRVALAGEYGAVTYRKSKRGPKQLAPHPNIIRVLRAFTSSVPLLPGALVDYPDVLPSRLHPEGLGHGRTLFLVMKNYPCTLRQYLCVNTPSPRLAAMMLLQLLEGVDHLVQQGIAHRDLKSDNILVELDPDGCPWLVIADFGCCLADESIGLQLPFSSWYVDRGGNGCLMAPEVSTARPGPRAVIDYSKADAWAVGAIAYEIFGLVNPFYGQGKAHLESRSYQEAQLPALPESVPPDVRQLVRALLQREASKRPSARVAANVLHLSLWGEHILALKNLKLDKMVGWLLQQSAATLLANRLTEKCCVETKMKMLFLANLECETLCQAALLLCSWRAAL
Experimental: (§4) Both HeLa and parkin-overexpressed HeLa cells were maintained in DMEM high glucose (Gibco), 10% FBS (Sigma-Aldrich) at 37° C. with 5% CO2. For experiments, cells were counted and seeded into a range of culture plates, depending on the experiment, cell counting was done using the Cellometer Auto T4 with TrypanBlue (Gibco). […] Alternatively, HeLa cells were seeded in well plates and then transfected with […] of parkin cDNA using the PEI method once the plated cells reached 60% confluency. After 6 hours, the media was changed. Sub-culturing was done when the cells reached ˜90% confluency.
(§5) Cell culture with 70-80% confluency was lysed as follows: cells were washed with Phosphate Buffer Saline (PBS) (Sigma). 150 μl of lysis buffer was used on each well containing either: • 50 mM Tris-HCl pH 7.5, 1 mM EDTA, 1 mM EGTA, 0.27 M sucrose, 1 mM Na3VO4, 50 mM NaF, 5 mM Na pyrophosphate and fresh 1 mM benzamidine, 1% NP-40 and […]; or • 50 mM Tris-HCl pH 7.5, 1 mM EDTA, 1 mM EGTA, 10 mM Na β-glycerophosphate, 0.27 M sucrose, 1 mM Na3VO4, 50 mM NaF, 10 mM Na pyrophosphate with fresh 1 mM benzamidine, 1% Triton X-100, complete EDTA-free Protease Inhibitor, Phosphatase inhibitor cocktail 3 and 100 μM of 2-chloroacetamide.
(§6) The cells were scrapped and transferred to the microtube and eventually spun down at 12,000 rpm for 15 minutes at 4° C. Finally, the supernatant was transferred to the new microtubes and stored at −20° C. Protein concentration was measured using Bradford Assay. Serial concentrations 0.125; 0.25; 0.5 and 1 mg/ml of Bovine Serum Albumin (BSA) (Sigma Aldrich) were used as a standard. Samples were boiled at 90° C. for 5 minutes in SDS sample loading buffer.

Ub Ser65 phosphorylation [5] = test: Phospho-Ub (Ub Ser65) immunoblotting in parkin- or YFP-parkin-transfected HeLa cells; format: cell-based; conditions: immunoblot; for ubiquitin phosphorylation, niclosamide or CCCP only (controls): YFP-parkin HeLa cells, 10 μM, 1 h; for phosphorylation of Ub at Ser65, niclosamide or CCCP treatment alone (controls): 10 μM CCCP 3 h
Experimental: as §4, §5, §6
The next day membranes were washed in TBST and incubated with horse radish peroxidase (HRP)-conjugated antibodies for 1 h at room temperature with agitation. Following TBST washes, proteins were visualised using Amersham™ ECL™ Prime kit (GE Biosciences) and imaged using the Bio-rad ChemicDoc. Primary antibodies used for western blotting; GAPDH (Abcam cat #ab9485), Phospho-Ub Ser 65 (Sigma-Aldrich cat #ABS1513-1), LC3B (Cell Signaling cat #3868S). Secondary antibodies used for western blotting; anti-rabbit HRP (Agilent Dako cat #P0399), anti-mouse HRP (Agilent Dako cat #P0260).
(§7) To explore this, we first treated parkin-transfected HeLa cells for 24 h with 50 μM kinetin, kinetin riboside or kinetin riboside ProTide, a monophosphate prodrug of kinetin riboside.

PINK1 [6] = biological target: T1, PINK1; conditions: in presence of the de-polarizing agent CCCP; cited from earlier work
OPA1 = OPA1 cleavage immunoblot (mitochondrial membrane depolarization) in parkin-transfected HeLa cells; format: cell-based; conditions: 10 μM CCCP 3 h
Experimental: as §4, §5, §6, §7

[7] = test system: HeLa cells transfected with YFP-parkin; test: TMRM fluorescence (mitochondrial membrane potential); format: cell-based
Experimental: For assessing tetramethylrhodamine methyl ester perchlorate (TMRM) fluorescence, cell media was removed and replaced with cell media consisting of 5 nM TMRM (ThermoFisher) and 10 μg/ml Hoechst 33258 stain for 30 mins in the dark at 37° C. to allow incorporation of TMRM into mitochondria. Following PBS washes, FluoroBrite DMEM (Gibco) media was added to cells, followed by subsequent imaging using a Zeiss LSM800 microscope at 37° C. with 5% CO2.

[8] = test system: immortalised MEF expressing PINK1 wild-type (WT); test: MitoQC mitophagy assay, MEF expressing PINK1 wild-type; format: cell-based; conditions: 20 μM CCCP, 24 h
Source text: (§8) With the inhibition of ubiquitin phosphorylation and parkin localisation to the mitochondria by kinetin riboside and the nucleoside analogue 9c, we next asked whether these compounds still induce mitophagy in a PINK1 dependent manner. To explore this, we employed the established MitoQC assay for measuring mitophagy in cells^11,12.

PINK1 KO MEFs = test: MitoQC mitophagy assay, PINK1 knock-out MEF; format: cell-based; conditions: 20 μM CCCP, 24 h
Source text: as §8

[9] = 50 μM, 24 h, no niclosamide or CCCP

CNc1ncnc2c1ncn2[C@@H]1O[C@H](CO)[C@@H](O)[C@H]1O [9a, (2R,3S,4R,5R)-2-(hydroxymethyl)-5-(6-(methylamino)-9H-purin-9-yl)tetrahydrofuran-3,4-diol]
parkin localisation to the mitochondria after pre-treatment followed by CCCP, compared to CCCP alone ([1]; 50 μM 24 h, then 10 μM CCCP): did not have a significant impact
impact on mitochondrial fragmentation (TOM20), compound alone [1, 9]: did not have any impact
impact on parkin localisation, compound alone [1, 9]: did not have any impact
ubiquitin Ser65 phosphorylation after pre-treatment followed by valinomycin, compared to valinomycin alone [2]: significant suppression of ubiquitin Ser65 phosphorylation
ubiquitin Ser65 phosphorylation, compound alone [2]: increased phosphorylation
ubiquitin Ser65 phosphorylation after pre-treatment followed by CCCP, compared to CCCP alone (Ub Ser65 phosphorylation [3]; 50 μM 24 h, then 10 μM CCCP, immunofluorescence): did not have a significant impact
impact on ubiquitin phosphorylation, compound alone (Ub Ser65 phosphorylation [3]; 50 μM, 24 h, no niclosamide or CCCP, immunofluorescence): did not have any impact

CC(C)(C)CNc1ncnc2c1ncn2[C@@H]1O[C@H](CO)[C@@H](O)[C@H]1O [9f, (2R3S,4R,5R)-2-(hydroxymethyl)-5-(6-(neopentylamino)-9K-purin-9-yl)tetrahydrofuran-3,4-diol]
activation of PINK1 as judged by parkin Ser65 phosphorylation (PINK1 [4]): exhibited pronounced activation of PINK1 apart from compound 9f

c1coc(CNc2ncnc3[nH]cnc23)c1 [kinetin, reference compound]
inhibition of CCCP-induced phosphorylation of ubiquitin by pre-treatment (Ub Ser65 phosphorylation [5]; parkin-transfected HeLa cells, 50 μM 24 h, then 10 μM CCCP 3 h): did not
phosphorylation of ubiquitin (Ub Ser65), compound alone (Ub Ser65 phosphorylation [5]; parkin-transfected HeLa cells, 50 μM, 24 h, no CCCP): did not lead to any notable phosphorylation of ubiquitin
ubiquitin Ser65 phosphorylation after pre-treatment followed by valinomycin, compared to valinomycin alone [2]: significant suppression of ubiquitin Ser65 phosphorylation
ubiquitin Ser65 phosphorylation, compound alone [2]: increased phosphorylation
PINK1 activation in cells exposed to CCCP (PINK1 [6]): enhanced PINK1 activation

O=C(Nc1ccc([N+](=O)[O-])cc1Cl)c1cc(Cl)ccc1O [niclosamide, reference compound]
ubiquitin phosphorylation, niclosamide or CCCP only (controls) (Ub Ser65 phosphorylation [5]): induced strong ubiquitin phosphorylation
phosphorylation of Ub at Ser65, niclosamide or CCCP treatment alone (controls) (Ub Ser65 phosphorylation [5]; parkin-transfected HeLa cells): strong phosphorylation of Ub at Ser65
phosphorylation of ubiquitin, niclosamide or CCCP alone (Ub Ser65 phosphorylation [3]; YFP-parkin HeLa cells, 10 μM, 1 h, immunofluorescence): induced significant phosphorylation of ubiquitin
OPA1 cleavage (mitochondrial membrane depolarization), niclosamide or CCCP alone (OPA1): led to OPA1 cleavage
mitochondrial membrane potential, niclosamide or CCCP ([7]; 10 μM, data not shown): membrane potential collapse

carbonyl cyanide m-chlorophenyl-hydrazine [CCCP, reference compound]
ubiquitin phosphorylation, niclosamide or CCCP only (controls) (Ub Ser65 phosphorylation [5]): induced strong ubiquitin phosphorylation
phosphorylation of Ub at Ser65, niclosamide or CCCP treatment alone (controls) (Ub Ser65 phosphorylation [5]; parkin-transfected HeLa cells): strong phosphorylation of Ub at Ser65
parkin localisation to the mitochondria, CCCP treatment alone ([1]; 10 μM CCCP): promoted parkin localisation to the mitochondria
mitophagy in PINK1 WT MEFs, CCCP [8]: induced an increase in mitophagy
phosphorylation of ubiquitin, niclosamide or CCCP alone (Ub Ser65 phosphorylation [3]): induced significant phosphorylation of ubiquitin; also recorded: induced strong ubiquitin phosphorylation
OPA1 cleavage (mitochondrial membrane depolarization), niclosamide or CCCP alone (OPA1): led to OPA1 cleavage; also recorded: associated with cleavage of OPA1
mitochondrial membrane potential, niclosamide or CCCP [7]: membrane potential collapse
mitophagy in PINK1 KO MEFs, CCCP (PINK1 KO MEFs): not in PINK1 KO MEFs
